Source: US20160160189A1, “Truncated Constructs of RIPK3 and Related Uses” (ST. JUDE CHILDREN'S RESEARCH HOSPITAL, priority 2013, published 2016)
Peptide text beside a SMILES is read from it. * marks the point of attachment. Cbz = O=C(OCc1ccccc1)*; CH2F = FC*

Experiments:
Format in all cases: cell-based, murine
[1] = test system: RIPK3 necrosome complex (RIPK1, caspase-8); assay: Anti-FLAG immunoprecipitation of necrosome complexes; conditions: RIPK3-1xFv, AP1 30 minutes; zVAD 50 μM, Nec1 30 μM
Description: Immunoprecipitation of necrosome complexes were carried out using rabbit anti-FLAG antibodies, and TruBlot IP reagents (Rockland Immunochemicals) to eliminate non-specific signals from immunoglobulin heavy and light chains. Briefly, cell lines were treated as indicated and lysed in NP40 buffer (30 mM Tris, 150 mM NaCl, and 1% NP40) supplemented with protease inhibitors. Twenty micrograms of each sample were reserved for “input,” while 500 μg of total protein from each sample were immunoprecipitated with 0.5 μg antibody conjugated to 30 μL TruBlot anti-Rabbit IgG beads Immunocomplexes were washed 4 times in NP40 buffer, eluted by boiling, then run on western blot. Western blots were analyzed using standard primary antibodies, but TruBlot anti-Rabbit and anti-Mouse HRP-conjugated 14 secondary antibodies were used. A standard anti-Rat-HRP secondary was used to detect caspase-8.

[2] = test system: NIH-3T3 cells expressing RIPK3-2xFv; assay: AP1-induced RIPK3 oligomerization cell death, IncuCyte imaging; conditions: AP1; zVAD 50 μM, Nec1 30 μM
From the text: (§1) Consequently, two Fv domains were attached to the C-terminus of RIPK3, creating a RIPK3-2xFv construct, with the goal of promoting AP1-induced crosslinking and oligomerization independent of the RHIM domain. See, FIG. 12A. […] Compare, FIGS. 16A and 15A, respectively. […] Cells expressing this RHIM-deficient RIPK3^ΔC-2xFv construct were nonresponsive to TNF+zVAD, previously reported to be dependent on RIPK1 RHIM/RIPK3 RHIM interactions. See, FIG. 13G. […] See, FIG. 16C and FIG. 16D, respectively. […] See, FIG. 16E. […] See, FIG. 16F.
(§2) Cell death assays were carried out using a 2-color IncuCyte Zoom in-incubator imaging system (Essen Biosciences.) Briefly, this system allows fully automated imaging of cells at set intervals in phase contrast as well as both red and green fluorescent channels. Cell death assays were carried out by treating cells with death-inducing compounds in 24 well tissue culture vessels (100,000 cells/well), in the presence of 100 nM of the cell-impermeable DNA binding fluorescent dyes Sytox Green (Life Technologies 57020) or Yoyo-3 (Y3606), which are excluded from healthy cells but rapidly enter dying cells upon membrane permeabilization, in a manner analogous to propidium iodide.
(§3) Resulting images were analyzed using the software package supplied with the IncuCyte imager, which allows precise analysis of the number of Sytox Green or Yoyo-3 positive cells present in each image. For each experiment, a minimum of three separate wells were treated with each experimental condition, and a minimum of 4 image fields were assessed per well. Percent cell death was calculated by treating a minimum of three distinct wells in each experiment with 100 nM of the cell permeable fluorescent dye Syto Green (S7559), which allows quantification of the total number of cells present in each field. Dead cell events acquired via Sytox Green or Yoyo-3 staining were divided by this total cell number to yield percent cell death at each timepoint. Error bars represent standard deviation from the mean of a minimum of three independent wells. Each result depicted is representative of at least 4 distinct experiments, each of which contained at least 3 technical replicates.

[3] = test system: NIH-3T3 cells expressing RIPK3^ΔC-2xFv; assay: as above; conditions: zVAD 50 μM, Nec1 30 μM
From the text: as §1, §2, §3

SMILES	effect of inhibitor on association of RIPK1 and caspase-8 with the RIPK3 complex [1]	effect of inhibitor on magnitude or kinetics of cell death [2]	effect of inhibitor on magnitude or kinetics of cell death [3]
COC(=O)C[C@H](NC(=O)[C@H](C)NC(=O)[C@@H](NC(=O)OCc1ccccc1)C(C)C)C(=O)CF [zVAD] (Cbz-Val-Ala-Asp(OMe)-CH2F)	increased association of these proteins	did not alter magnitude or kinetics of cell death	did not alter magnitude or kinetics of cell death
CN1C(=O)C(Cc2c[nH]c3ccccc23)NC1=S (stereo not drawn) [necrostatin-1, Necrostatin-1]	eliminated formation of stable RIPK1- and caspase-8 containing complexes	did not alter magnitude or kinetics of cell death	did not alter magnitude or kinetics of cell death
